Assay results: patent publication US8119667B2, “Carbonates of fenicol antibiotics” (Schering-Plough Animal Health Corporation, priority 2005, dated 2012)
Values after ≈ are worked out from the molar mass of the structure shown.

Experiments:
Aqueous solubility = assay type: physicochemical; settings: aqueous medium (not further specified)
Experimental: In some therapeutic applications florfenicol is administered in concentrated organic solution subcutaneously where it is known to form localized depot of the drug which results in the desired sustained release of the drug into the circulation. In such cases solubility of florfenicol in aqueous media represents one of important factors determining the rate of the sustained release. Another important factor affecting the sustained release of florfenicol from the subcutaneous depot site is the concentration of the dosing solution and the solvent composition of the formulation. Apart from the broader range of solvents which can be used for acceptable formulations of florfenicol benzylic carbonate prodrugs these prodrugs also allow a wide range of aqueous solubilities. Solubilities achieved with these prodrugs range from slightly to dramatically lower than that of florfenicol. Reduced aqueous solubilities of such prodrugs may be useful in controlling the rate of dissolution of the prodrug at the subcutaneous depot site and may allow achieving optimized sustained release of the parent drug.

[1] = Syringeability of dosing solutions (dripping-syringe method); assay type: physicochemical
Experimental: Table 4, below, provides evaluations of the syringeability of dosing solutions of selected florfenicol benzylic carbonate prodrugs at concentrations equivalent to 300 mg/ml florfenicol (30% weight/volume).
High concentrations of fenicol or fenicol drug contained in a fenicol prodrug are often necessary for convenient administration of the necessary amount of the desired amount of the antibiotic. Due to the limited solubility of fenicols in many organic solvents or mixtures of solvents acceptable for injectable formulations the choice of solvents for preparation of highly concentrated florfenicol solutions is limited. As a result highly concentrated solutions of fenicol drugs in organic solvents or solvent mixtures may become highly viscous and difficult to administer by a syringe. Therefore the ability of fenicol benzylic carbonate prodrugs to dissolve in a wider range of organic solvents or mixtures of solvents acceptable for injectable formulations offered the potential to prepare highly concentrated solutions for injections with lower viscosity. […] Test solutions of florfenicol benzylic carbonates containing concentrations of florfenicol (mg/mL) equivalent to the concentration present in Nuflor® formulation were prepared. Syringeabilities of the solutions were evaluated by means of the “dripping syringe” method in which the dripping times (sec) of equal volumes of such solutions under free gravitational flow conditions from a vertically positioned syringe were measured at 15° C. After removing the plunger from a 5 ml polyethylene disposable syringe (5 ml Luer, Norm-Ject Zentrish/Henke Saas Wolf GMBH) and fitting the syringe with a disposable needle (B-D® 16G1 Precision Glide/BentonDickinson & CO) the test solutions were loaded from the top into the syringe and the time necessary for the free flow of 2 mL of solution (between 3 ml and 1 ml marks) was recorded in triplicate. The syringeabilities relative to Nuflor® were calculated by dividing the dripping time for the test solutions (entries 1-12) by the dripping time measured for the commercial sample of Nuflor® formulation (entry 13) As it is evident from the results in Table 4 the syringeabilities of tested solutions containing benzyl alcohol as viscosity diluent had relative syringeabilities <1.00 and were therefore better than Nuflor® (30% weight/volume florfenicol solution in propylene glycol/polyethylene glycol 300/2-methyl pyrolidinone). Due to their better syringeability these solutions represent more favorable formulations for injectable delivery of florfenicol. Solution of the florfenicol benzylic carbonate of the example 2 in triacetin/2-pyrolidinone—1/1 lacking the benzyl alcohol viscosity diluent was the only solution with syringeability poorer that than that of Nuflor® (entry 5).

[2] = Solubility in triacetin/benzyl alcohol 2:1 (volume/volume) solvent mixture; assay type: physicochemical; settings: 20° C.
Experimental: Florfenicol parent drug was not soluble in triacetin/benzyl alcohol 2:1 (volume/volume) even at concentrations as low as 10% (weight/volume). […] The combination of prodrug of Example 14 at 275 mg/ml and florfenicol at 100 mg/ml was soluble in triacetin/benzyl alcohol 2:1 (volume/volume) and provided a stable solution with 30% (weight/volume) content of florfenicol (Table 4, supra, entry 12).

[3] = In vitro enzymatic release of parent florfenicol from prodrugs in bovine serum; assay type: in vitro ADME; settings: for Florfenicol released from prodrugs (% of total) after treatment with bovine serum: 37° C.; for rates of florfenicol release in serum: bovine serum, among the compounds tested
From the text: The ability of a prodrug derivative of a parent drug molecule to act efficiently in vivo as a source of the free parent drug determines the utility of a particular prodrug for treatment. The prodrug's ability to release the parent drug in vivo, in the presence of endogenous enzymes, can be determined by measuring the systemic levels of the parent drug after administration of the prodrug to the animal. This releasibility can also be assessed in vitro by measuring the release of the parent drug after mixing with animal whole blood, plasma or serum. Selected benzylic carbonate prodrugs of florfenicol were tested for release of florfenicol after in vitro mixing with bovine serum. […] A general trend of more lipophilic carbonates of florfenicol showing higher rates of degradation and release seems to be present among the compounds tested.
50 microliter of stock solution of carbonate pro-drug (10 mg/mL in DMSO) was added to 5 mL donor bovine serum and mixed. Aliquots of 400 microliter of the resulting solution were transferred into 1.5 mL plastic centrifuge tubes. Each plastic tube was placed into at 37° C. water bath for incubation. Samples were removed at 0, 1, 2, 4, 8, and 24 hours, and after addition of 400 microliter of acetonitrile to stop the reaction, rapidly stirred for 30 seconds. The precipitate was removed by centrifugation on an Eppendorf 5415G at 14000 rpm for 5 minutes. The clear supernatant solution was sampled for the HPLC analysis. The peak area of florfenicol was used to calculate the conversion of the prodrugs.

[4] = 300 mg/ml, N-methyl 2-pyrolidinone/propylene glycol/polyethylene glycol 300, 15° C.
[5] = prodrug concentration equivalent to 300 mg/ml florfenicol, Triacetin/benzyl alcohol - 2:1 (vol/vol), 15° C.
[6] = prodrug concentration equivalent to 300 mg/ml florfenicol, Triacetin/benzyl alcohol - 2:1 (vol/vol), free flow of 2 mL at 15° C.
[7] = prodrug concentration equivalent to 300 mg/ml florfenicol, Triacetin/benzyl alcohol/2-pyrolidinone - 2:1:1.5, 15° C.

Row | solubility (Aqueous solubility) [µg/mL] | Solubility at selected concentration of contained florfenicol ([2]; 10% weight/volume florfenicol) | Solubility at selected concentration of contained florfenicol ([2]; 20% weight/volume florfenicol) | Solubility at selected concentration of contained florfenicol ([2]; 25% weight/volume florfenicol) | Solubility at selected concentration of contained florfenicol ([2]; 30% weight/volume florfenicol) | Solubility at selected concentration of contained florfenicol ([2]; 35% weight/volume florfenicol) | Solubility at selected concentration of contained florfenicol ([2]; 37% weight/volume florfenicol) | Solubility at selected concentration of contained florfenicol ([2]; 40% weight/volume florfenicol) | melting point [°C] | Florfenicol released from prodrugs (% of total) after treatment with bovine serum ([3]; 0 h) | SMILES | other results
1 | 770 (≈ 1670 µM) | – | – | – | – | – | – | – | – | – | COCCOC(=O)O[C@H](c1ccc(S(C)(=O)=O)cc1)[C@@H](CF)NC(=O)C(Cl)Cl [Example 11, (1R,2S)-2-(2,2-dichloroacetamido)-3-fluoro-1-(4-(methylsulfonyl)phenyl)propyl 2-methoxyethyl carbonate] | –
2 | 1530 (≈ 4270 µM) | not soluble | insoluble | insoluble | insoluble | insoluble | insoluble | insoluble | – | – | CS(=O)(=O)c1ccc([C@@H](O)[C@@H](CF)NC(=O)C(Cl)Cl)cc1 [Florfenicol, D-(threo)-1-(4-methylsulfonylphenyl)-2-dichloroacetamido-3-fluoro-1-propanol, reference compound] | Syringeability measurement: Dripping time [1, 4]: 233 ± 2 s; Syringeability measurement: Relative to NUFLOR [1, 4]: 1.00; Solubility at selected concentration of contained florfenicol ([2]; 10% weight/volume florfenicol, listed as florfenicol): insoluble
3 | 7 (≈ 15.3 µM) | – | – | – | – | – | – | – | 156 to 158 | – | CC(C)COC(=O)O[C@H](c1ccc(S(C)(=O)=O)cc1)[C@@H](CF)NC(=O)C(Cl)Cl [Example 5, (1R,2S)-2-(2,2-dichloroacetamido)-3-fluoro-1-(4-(methylsulfonyl)phenyl)propyl isobutyl carbonate] | –
4 | 32 (≈ 65 µM) | soluble | soluble | soluble | soluble | soluble | soluble | insoluble | 105 to 106 | BQL | CS(=O)(=O)c1ccc([C@@H](OC(=O)OCc2ccccc2)[C@@H](CF)NC(=O)C(Cl)Cl)cc1 [Example 14, Benzyl(1R,2S)-2-(2,2-dichloroacetamido)-3-fluoro-1-(4-(methylsulfonyl)phenyl)propyl carbonate] | Syringeability measurement: Relative to NUFLOR [1, 5]: 0.88; Syringeability measurement: Dripping time [1, 6]: 204 ± 9 s; rates of florfenicol release in serum [3]: highest rates
5 | 100 (≈ 225 µM) | – | – | – | – | – | – | – | 148 to 150 | BQL | CC(C)OC(=O)O[C@H](c1ccc(S(C)(=O)=O)cc1)[C@@H](CF)NC(=O)C(Cl)Cl [Example 4, (1R,2S)-2-(2,2-dichloroacetamido)-3-fluoro-1-(4-(methylsulfonyl)phenyl)propyl isopropyl carbonate] | Syringeability measurement: Dripping time [1, 7]: 164 ± 3 s; Syringeability measurement: Relative to NUFLOR [1, 7]: 0.70; Florfenicol released from prodrugs (% of total) after treatment with bovine serum ([3]; 1 h): BQL; Florfenicol released from prodrugs (% of total) after treatment with bovine serum ([3]; 2 h): BQL
6 | 550 (≈ 1090 µM) | – | – | – | – | – | – | – | 44 to 54 | – | CCOC(=O)[C@H](C)OC(=O)O[C@H](c1ccc(S(C)(=O)=O)cc1)[C@@H](CF)NC(=O)C(Cl)Cl [Example 17] | –
7 | 350 (≈ 738 µM) | – | – | – | – | – | – | – | 88 to 90 | – | CCOCCOC(=O)O[C@H](c1ccc(S(C)(=O)=O)cc1)[C@@H](CF)NC(=O)C(Cl)Cl [Example 12, (1R,2S)-2-(2,2-dichloroacetamido)-3-fluoro-1-(4-(methylsulfonyl)phenyl)propyl 2-ethoxyethyl carbonate] | –
8 | 120 (≈ 263 µM) | – | – | – | – | – | – | – | 132 to 134 | – | CS(=O)(=O)c1ccc([C@@H](OC(=O)OCC2CC2)[C@@H](CF)NC(=O)C(Cl)Cl)cc1 [Example 6, Cyclopropylmethyl(1R,2S)-2-(2,2-dichloroacetamido)-3-fluoro-1-(4-(methylsulfonyl)phenyl)propyl carbonate] | –
9 | 45 (≈ 54.2 µM) | soluble | soluble | soluble | soluble | soluble | soluble | soluble | 110 to 112 | BQL | CS(=O)(=O)c1ccc([C@@H](OC(=O)OCCOC(=O)O[C@H](c2ccc(S(C)(=O)=O)cc2)[C@@H](CF)NC(=O)C(Cl)Cl)[C@@H](CF)NC(=O)C(Cl)Cl)cc1 [Example 26, Bis((1R,2S)-2-(2,2-dichloroacetamido)-3-fluoro-1-(4-(methylsulfonyl)phenyl)propyl)ethane-1,2-diyl dicarbonate] | Syringeability measurement: Relative to NUFLOR [1, 5]: 0.93; Syringeability measurement: Dripping time [1, 6]: 216 ± 8 s; Florfenicol released from prodrugs (% of total) after treatment with bovine serum ([3]; 1 h): BQL
10 | 25 (≈ 52.9 µM) | – | – | – | – | – | – | – | 120 to 122 | BQL | CC(C)CCOC(=O)O[C@H](c1ccc(S(C)(=O)=O)cc1)[C@@H](CF)NC(=O)C(Cl)Cl [Example 8, (1R,2S)-2-(2,2-dichloroacetamido)-3-fluoro-1-(4-(methylsulfonyl)phenyl)propyl isopentyl carbonate] | Syringeability measurement: Dripping time [1, 7]: 157 ± 1 s; Syringeability measurement: Relative to NUFLOR [1, 7]: 0.67; rates of florfenicol release in serum [3]: highest rates

Row | SMILES | solubility (Aqueous solubility) [µg/mL] | Solubility at selected concentration of contained florfenicol ([2]; 10% weight/volume florfenicol) | Solubility at selected concentration of contained florfenicol ([2]; 20% weight/volume florfenicol) | Solubility at selected concentration of contained florfenicol ([2]; 25% weight/volume florfenicol) | Solubility at selected concentration of contained florfenicol ([2]; 30% weight/volume florfenicol) | Solubility at selected concentration of contained florfenicol ([2]; 35% weight/volume florfenicol) | Solubility at selected concentration of contained florfenicol ([2]; 37% weight/volume florfenicol) | Solubility at selected concentration of contained florfenicol ([2]; 40% weight/volume florfenicol) | melting point [°C] | Florfenicol released from prodrugs (% of total) after treatment with bovine serum ([3]; 0 h) | other results
11 | CCCCOCCOC(=O)O[C@H](c1ccc(S(C)(=O)=O)cc1)[C@@H](CF)NC(=O)C(Cl)Cl [Example 13, (1R,2S)-2-(2,2-dichloroacetamido)-3-fluoro-1-(4-(methylsulfonyl)phenyl)propyl 2-butoxyethyl carbonate] | 150 (≈ 299 µM) | soluble | soluble | soluble | soluble | soluble | soluble | soluble | – | BQL | Syringeability measurement: Relative to NUFLOR [1, 5]: 0.61; Syringeability measurement: Dripping time [1, 6]: 141 ± 5 s; Florfenicol released from prodrugs (% of total) after treatment with bovine serum ([3]; 1 h): BQL
